In US12077503B2, “Substituted cyclic amides and their use as herbicides” (FMC CORPORATION, priority 2015, dated 2024):

What was measured:
Format in all cases: in vivo
[1] = test system: pigweed (Amaranthus retroflexus); test: Test A preemergence; conditions: Amaranthus retroflexus, pre-emergence, 240 h; for pest or weed control at 125 g/ha: 125 g ai/ha, preemergence, 0 to 100 scale where 0 is no effect and 100 is complete control, read-out: Pigweed plant response rating; for pest or weed control at 500 g/ha: 500 g ai/ha, Preemergence, visual injury vs untreated controls after approximately 10 d, read-out: Pigweed plant response rating (0 to 100 scale where 0 is no effect and 100 is complete control)
[2] = test system: giant foxtail (Setaria faberii); test: Test A preemergence; conditions: Setaria faberi, pre-emergence, 240 h; for pest or weed control at 125 g/ha: 125 g ai/ha, preemergence, 0 to 100 scale where 0 is no effect and 100 is complete control, read-out: Foxtail, Giant plant response rating; for pest or weed control at 500 g/ha: 500 g ai/ha, Preemergence, visual injury vs untreated controls after approximately 10 d, read-out: Foxtail, Giant plant response rating (0 to 100 scale where 0 is no effect and 100 is complete control)
Outline: (§1)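 Preemergence soil spray on seeded pots or post-emergence spray on 1–2 leaf plants, in loam–sand blend. Greenhouse ~10 d. Visual rating 0–100 against untreated plants.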

[3] = test system: ryegrass, Italian (Italian ryegrass, Lolium multiflorum); test: Test A preemergence; conditions: Lolium multiflorum, pre-emergence, 240 h; for pest or weed control at 125 g/ha: 125 g ai/ha, preemergence, 0 to 100 scale where 0 is no effect and 100 is complete control, read-out: Ryegrass, Italian plant response rating; for pest or weed control at 500 g/ha: 500 g ai/ha, Preemergence, visual injury vs untreated controls after approximately 10 d, read-out: Ryegrass, Italian plant response rating (0 to 100 scale where 0 is no effect and 100 is complete control)
Outline: as §1

[4] = test system: Kochia (Kochia scoparia); test: Test A preemergence; conditions: Bassia scoparia, pre-emergence, 240 h; for pest or weed control at 125 g/ha: 125 g ai/ha, preemergence, 0 to 100 scale where 0 is no effect and 100 is complete control, read-out: Kochia plant response rating; for pest or weed control at 500 g/ha: 500 g ai/ha, Preemergence, visual injury vs untreated controls after approximately 10 d, read-out: Kochia plant response rating (0 to 100 scale where 0 is no effect and 100 is complete control)
Outline: as §1

[5] = test system: ragweed (common ragweed, Ambrosia elatior); test: Test A preemergence; conditions: Ambrosia artemisiifolia, pre-emergence, 240 h; for pest or weed control at 125 g/ha: 125 g ai/ha, preemergence, 0 to 100 scale where 0 is no effect and 100 is complete control, read-out: Ragweed plant response rating; for pest or weed control at 500 g/ha: 500 g ai/ha, Preemergence, visual injury vs untreated controls after approximately 10 d, read-out: Ragweed plant response rating (0 to 100 scale where 0 is no effect and 100 is complete control)
Outline: as §1

[6] = test system: barnyardgrass (Echinochloa crus-galli); test: Test A preemergence; conditions: Echinochloa crus-galli, pre-emergence, 240 h; for pest or weed control at 125 g/ha: 125 g ai/ha, preemergence, 0 to 100 scale where 0 is no effect and 100 is complete control, read-out: Barnyardgrass plant response rating; for pest or weed control at 500 g/ha: 500 g ai/ha, Preemergence, visual injury vs untreated controls after approximately 10 d, read-out: Barnyardgrass plant response rating (0 to 100 scale where 0 is no effect and 100 is complete control)
Outline: as §1

[7] = test system: wheat (Triticum aestivum); test: Test A postemergence; conditions: Triticum aestivum, post-emergence, 240 h, 125 g ai/ha, postemergence, visual injury rating after approximately 10 d; read-out: Wheat plant response rating (0 to 100 scale, 0 no effect, 100 complete control)
Outline: as §1

[8] = test system: giant foxtail (Setaria faberii); test: Test A postemergence; conditions: Setaria faberi, post-emergence, 240 h, 125 g ai/ha, postemergence, visual injury rating after approximately 10 d; read-out: Foxtail, Giant plant response rating (0 to 100 scale, 0 no effect, 100 complete control)
Outline: as §1

[9] = test system: ryegrass, Italian (Italian ryegrass, Lolium multiflorum); test: Test A postemergence; conditions: Lolium multiflorum, post-emergence, 240 h, 125 g ai/ha, postemergence, visual injury rating after approximately 10 d; read-out: Ryegrass, Italian plant response rating (0 to 100 scale, 0 no effect, 100 complete control)
Outline: as §1

[10] = test system: ragweed (common ragweed, Ambrosia elatior); test: Test A postemergence; conditions: Ambrosia artemisiifolia, post-emergence, 240 h, 125 g ai/ha, postemergence, visual injury rating after approximately 10 d; read-out: Ragweed plant response rating (0 to 100 scale, 0 no effect, 100 complete control)
Outline: as §1

[11] = test system: rice (Oryra sativa); test: Test B flooded paddy test; conditions: Oryza sativa, Flood, 250 g ai/ha; scale of 0 to 100 where 0 is no effect and 100 is complete control; read-out: Rice plant response rating
Outline: (§2)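 Percent control, visually estimated after 13–15 d in the greenhouse on a 0–100 basis, compares treated pots with untreated ones; compound was put into paddy water 3 cm above the soil when plants had two leaves.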

[12] = test system: sedge, umbrella (small-flower umbrella sedge, Cyperus difformis); test: Test B flooded paddy test; conditions: Cyperus difformis, Flood, 250 g ai/ha; scale of 0 to 100 where 0 is no effect and 100 is complete control; read-out: Sedge, Umbrella plant response rating
Outline: as §2

[13] = test system: ducksalad (Heteranthera limosa); test: Test B flooded paddy test; conditions: Heteranthera limosa, Flood, 250 g ai/ha; scale of 0 to 100 where 0 is no effect and 100 is complete control; read-out: Ducksalad plant response rating
Outline: as §2

[14] = test system: barnyardgrass (Echinochloa crus-galli); test: Test B flooded paddy test; conditions: Echinochloa crus-galli, Flood, 250 g ai/ha; scale of 0 to 100 where 0 is no effect and 100 is complete control; read-out: Barnyardgrass plant response rating
Outline: as §2

SMILES	pest or weed control at 125 g/ha [1] [%]	pest or weed control at 500 g/ha [1] [%]	pest or weed control at 125 g/ha [2] [%]	pest or weed control at 500 g/ha [2] [%]	pest or weed control at 125 g/ha [3] [%]	pest or weed control at 500 g/ha [3] [%]	pest or weed control at 125 g/ha [4] [%]	pest or weed control at 500 g/ha [4] [%]	pest or weed control at 125 g/ha [5] [%]	pest or weed control at 500 g/ha [5] [%]	pest or weed control at 125 g/ha [6] [%]	pest or weed control at 500 g/ha [6] [%]	plant injury at 125 g/ha [7] [%]	pest or weed control at 125 g/ha [8] [%]	pest or weed control at 125 g/ha [9] [%]	pest or weed control at 125 g/ha [10] [%]	pest or weed control at 250 g/ha [11] [%]	pest or weed control at 250 g/ha [12] [%]	pest or weed control at 250 g/ha [13] [%]	pest or weed control at 250 g/ha [14] [%]
CN1C[C@H](c2cc(F)cc(F)c2)[C@@H](C(=O)Nc2ccc(C(F)(F)F)nc2)C1=O [Compound 870]	0	0	20	50	0	0	0	0	0	0	50	80	0	0	0	0	0	0	0	0
CN1C[C@H](c2cccc(COC(F)F)c2)[C@@H](C(=O)Nc2cccc(F)c2F)C1=O [Compound 873]	40	50	90	100	50	80	80	90	40	90	90	90	30	90	40	30	0	50	100	85
CN1C[C@H](c2cc(F)c(F)c(F)c2)[C@@H](C(=O)Nc2cccc(F)c2F)C1=O [Compound 879]	70	80	100	100	60	90	80	90	50	90	100	100	70	80	70	20	0	50	100	90
CN1C[C@H](c2cc(F)c(F)c(F)c2)[C@@H](C(=O)Nc2ccccc2S(C)(=O)=O)C1=O [Compound 880]	70	90	100	100	20	70	70	90	50	80	90	100	40	80	50	40	0	0	100	60
COc1c(F)ccc([C@H]2CNC(=O)[C@@H]2C(=O)Nc2ccc(F)cc2F)c1Cl [Compound 883]	0	0	60	90	0	20	30	60	0	0	90	90	0	70	0	0	20	0	80	0
COc1cccc(C2CN(C)C(=O)C2C(=O)Nc2cccc(F)c2F)c1 (centres unmarked) [Compound 886]	0	0	90	100	0	60	80	90	0	50	90	90	0	90	20	0	0	0	50	75
Cc1cc(C)cc([C@H]2CNC(=O)[C@@H]2C(=O)Nc2ccccc2F)c1 [Compound 888]	0	0	80	90	0	60	60	80	0	0	90	90	0	30	0	0	0	0	75	70
